Source: article PMC10612255, “Discovery of novel 2,3,4,5-tetrahydrospiro[benzo[c]azepine-1,1’-cyclohexan]-5-ol derivatives as PARP-1 inhibitors” (BMC Chemistry, 2023)

How the values were obtained:
HCT-116 = test: MTT assay, anti-proliferative effect on HCT-116 cells; type: cell-based, human; settings: Homo sapiens, HCT-116, 72 h, read-out: IC50 HCT-116
Description: (§1) A549, OVCAR-3, HCT-116, and MCF-7 were purchased from American type culture collection (ATCC, USA). […] And all cell lines used in the experiment were tested for mycoplasma contamination every two weeks.
(§2) A549, OVCAR-3, HCT-116, and MCF-7 cells were seeded in 96-well plates, and then treated with target compounds for 72 h. Then, 20 µL MTT (5 mg/mL, in PBS) was added into each well, and dissolved in 150 µL DMSO after incubation for 4 h. Finally, the absorbance was measured with microplate reader (490 nm).

OVCAR-3 = test: MTT assay, anti-proliferative effect on OVCAR-3 cells; type: cell-based, human; settings: Homo sapiens, OVCAR-3, 72 h, read-out: IC50 OVCAR-3
Description: as §1, §2

MCF-7 = test: MTT assay, anti-proliferative effect on MCF-7 cells; type: cell-based, human; settings: Homo sapiens, MCF7, 72 h, read-out: IC50 MCF-7
Description: as §1, §2

A549 = test: MTT assay, anti-proliferative effect on A549 cells; type: cell-based, human; settings: Homo sapiens, A549, 72 h, read-out: IC50 A549
Description: as §1, §2

Structure (SMILES) | IC50 (HCT-116) [µM] | IC50 (OVCAR-3) [µM] | IC50 (MCF-7) [µM] | IC50 (A549) [µM] | melting point [°C]
COc1cccc(-n2cc(CN3CCC(O)c4ccccc4C34CCCCC4)nn2)c1 (stereo not shown) [Compound 11 L, 2-((1-(3-methoxyphenyl)-1 H-1,2,3-triazol-4-yl)methyl)-2,3,4,5-tetrahydrospiro[benzo[c]azepine-1,1’-cyclohexan]-5-ol] | 11.7 ± 4.88 | 6.14 ± 0.56 | 8.54 ± 1.65 | 11.1 ± 2.98 | 172.3 to 174.1
OC1CCN(Cc2cn(-c3ccccc3)nn2)C2(CCCCC2)c2ccccc21 (stereo not shown) [Compound 11a, 2-((1-phenyl-1 H-1,2,3-triazol-4-yl)methyl)-2,3,4,5-tetrahydrospiro[benzo[c]azepine-1,1’-cyclohexan]-5-ol] | 10.3 ± 2.74 | 13.6 ± 2.45 | 15.5 ± 2.53 | 9.5 ± 1.23 | 
OC1CCN(Cc2cn(-c3cccc(F)c3)nn2)C2(CCCCC2)c2ccccc21 (stereo not shown) [Compound 11c, 2-((1-(3-fluorophenyl)-1 H-1,2,3-triazol-4-yl)methyl)-2,3,4,5-tetrahydrospiro[benzo[c]azepine-1,1’-cyclohexan]-5-ol] | 12.6 ± 2.43 | 7.65 ± 2.56 | 7.6 ± 1.96 | 4.29 ± 0.56 | 
OC1CCN(Cc2cn(-c3ccc(F)cc3)nn2)C2(CCCCC2)c2ccccc21 (stereo not shown) [Compound 11d, 2-((1-(4-fluorophenyl)-1 H-1,2,3-triazol-4-yl)methyl)-2,3,4,5-tetrahydrospiro[benzo[c]azepine-1,1’-cyclohexan]-5-ol] | 8.76 ± 3.11 | 17.1 ± 1.5 | 16.2 ± 3.88 | 4.88 ± 1.18 | 166.2 to 166.8
OC1CCN(Cc2cn(-c3ccccc3Br)nn2)C2(CCCCC2)c2ccccc21 (stereo not shown) [Compound 11n, 2-((1-(2-bromophenyl)-1 H-1,2,3-triazol-4-yl)methyl)-2,3,4,5-tetrahydrospiro[benzo[c]azepine-1,1’-cyclohexan]-5-ol] | 15.7 ± 1.98 | 12.6 ± 1.55 | 10.6 ± 0.85 | 17.9 ± 3.94 | 168.2 to 169.8
Cc1cccc(-n2cc(CN3CCC(O)c4ccccc4C34CCCCC4)nn2)c1 (stereo not shown) [Compound 11f, 2-((1-(m-tolyl)-1 H-1,2,3-triazol-4-yl)methyl)-2,3,4,5-tetrahydrospiro[benzo[c]azepine-1,1’-cyclohexan]-5-ol] | 12.2 ± 2.01 | 21.7 ± 8.94 | 8.94 ± 3.17 | 11.8 ± 1.07 | 167.3 to 168.2
N#Cc1ccc(-n2cc(CN3CCC(O)c4ccccc4C34CCCCC4)nn2)cc1 (stereo not shown) [Compound 11v, 4-(4-((5-hydroxy-4,5-dihydrospiro[benzo[c]azepine-1,1’-cyclohexan]-2(3 H)-yl)methyl)-1 H-1,2,3-triazol-1-yl)benzonitrile] | > 50 | > 50 | > 50 | > 50 | 
OC1CCN(Cc2cn(-c3ccccc3Cl)nn2)C2(CCCCC2)c2ccccc21 (stereo not shown) [Compound 11 h, 2-((1-(2-chlorophenyl)-1 H-1,2,3-triazol-4-yl)methyl)-2,3,4,5-tetrahydrospiro[benzo[c]azepine-1,1’-cyclohexan]-5-ol] | 8.97 ± 3.16 | 4.44 ± 0.1 | 6.5 ± 1.78 | 15.1 ± 1.18 | 167.9 to 168.3
OC1CCN(Cc2cn(-c3cccc(Br)c3)nn2)C2(CCCCC2)c2ccccc21 (stereo not shown) [Compound 11o, 2-((1-(3-bromophenyl)-1 H-1,2,3-triazol-4-yl)methyl)-2,3,4,5-tetrahydrospiro[benzo[c]azepine-1,1’-cyclohexan]-5-ol] | 10.8 ± 2.11 | 4.2 ± 0.48 | 7.99 ± 2.53 | 7.4 ± 1.75 | 169.3 to 170.2
OC1CCN(Cc2cn(-c3cccc(Cl)c3)nn2)C2(CCCCC2)c2ccccc21 (stereo not shown) [Compound 11i, 2-((1-(3-chlorophenyl)-1 H-1,2,3-triazol-4-yl)methyl)-2,3,4,5-tetrahydrospiro[benzo[c]azepine-1,1’-cyclohexan]-5-ol] | 10.8 ± 2.95 | 4.28 ± 0.77 | 6.34 ± 3.17 | 13.6 ± 2.47 | 168.1 to 168.8
Oc1ccccc1-n1cc(CN2CCC(O)c3ccccc3C23CCCCC3)nn1 (stereo not shown) [Compound 11q, 2-((1-(2-hydroxyphenyl)-1 H-1,2,3-triazol-4-yl)methyl)-2,3,4,5-tetrahydrospiro[benzo[c]azepine-1,1’-cyclohexan]-5-ol] | > 50 | 13.2 ± 4.09 | 8.72 ± 0.71 | 10.6 ± 1.2 | 156.8 to 157.2
